Measurements published in PubChem BioAssay (NCI).
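How tested: cells in 96-well plates exposed to compound for 48 hours at five concentrations. The concentration for full growth arrest is given as TGI.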

Legend:
Assay in all cases: NCI anticancer screen, dose series, 48 h
[1] = test system: SN12C renal
[2] = test system: DLD-1 colon
[3] = test system: U251 CNS
[4] = test system: NCI-H226 lung
[5] = test system: RXF 393 renal
[6] = test system: KM12 colon
[7] = test system: KM20L2 colon
[8] = test system: UO-31 renal
[9] = test system: SK-MEL-28 melanoma
[10] = test system: MOLT-4 leukemia
[11] = test system: LXFL 529 NSCLC
[12] = test system: TK-10 renal
[13] = test system: SK-OV-3 ovarian
[14] = test system: HOP-92 NSCLC
[15] = test system: DMS 273 small cell lung
[16] = test system: MALME-3M melanoma
[17] = test system: IGROV1 ovarian
[18] = test system: SK-MEL-2 melanoma
[19] = test system: HCT-15 colon
[20] = test system: SW-620 colon
[21] = test system: UACC-257 melanoma
[22] = test system: SF-268 CNS
[23] = test system: SK-MEL-5 melanoma
[24] = test system: HCT-116 colon
[25] = test system: M19-MEL melanoma
[26] = test system: EKVX NSCLC
[27] = test system: OVCAR-8 ovarian
[28] = test system: NCI-H23 lung
[29] = test system: LOX IMVI melanoma
[30] = test system: OVCAR-5 ovarian
[31] = test system: M14 melanoma
[32] = test system: HCC-2998 colon
[33] = test system: OVCAR-3 ovarian
[34] = test system: SR leukemia
[35] = test system: HOP-62 NSCLC
[36] = test system: SF-295 CNS
[37] = test system: K-562 leukemia
[38] = test system: HL-60(TB) leukemia
[39] = test system: HT29 colon
[40] = test system: NCI-H460 lung
[41] = test system: RPMI-8226 leukemia
[42] = test system: ACHN renal
[43] = test system: CCRF-CEM leukemia
[44] = test system: UACC-62 melanoma
[45] = test system: DMS 114 small cell lung
[46] = test system: COLO 205 colon
[47] = test system: CAKI-1 renal
[48] = test system: SNB-19 CNS
[49] = test system: 786-0 renal
[50] = test system: XF 498 CNS
[51] = test system: SF-539 CNS
[52] = test system: SNB-75 CNS
[53] = test system: NCI-H522 lung
[54] = test system: OVCAR-4 ovarian
[55] = test system: SNB-78 CNS
[56] = test system: A549 NSCLC
[57] = test system: A498 renal
[58] = test system: HOP-18 NSCLC

Nc1c(-c2ccccc2[N+](=O)[O-])nc2ccccn12
TGI [1]: > 100 µM
TGI [2]: > 100 µM
TGI [3]: > 100 µM
TGI [4]: > 100 µM
TGI [5]: > 100 µM
TGI [6]: > 100 µM
TGI [7]: > 100 µM
TGI [8]: > 100 µM
TGI [9]: > 100 µM
TGI [10]: > 100 µM
TGI [11]: > 100 µM
TGI [12]: > 100 µM
TGI [13]: > 100 µM
TGI [14]: > 100 µM
TGI [15]: > 100 µM
TGI [16]: > 100 µM
TGI [17]: > 100 µM
TGI [18]: > 100 µM
TGI [19]: > 100 µM
TGI [20]: > 100 µM
TGI [21]: > 100 µM
TGI [22]: > 100 µM
TGI [23]: > 100 µM
TGI [24]: > 100 µM
TGI [25]: > 100 µM
TGI [26]: > 100 µM
TGI [27]: > 100 µM
TGI [28]: > 100 µM
TGI [29]: > 100 µM
TGI [30]: > 100 µM
TGI [31]: > 100 µM
TGI [32]: > 100 µM
TGI [33]: > 100 µM
TGI [34]: > 100 µM
TGI [35]: > 100 µM
TGI [36]: > 100 µM
TGI [37]: > 100 µM
TGI [38]: > 100 µM
TGI [39]: > 100 µM
TGI [40]: > 100 µM
TGI [41]: > 100 µM
TGI [42]: > 100 µM
TGI [43]: > 100 µM
TGI [44]: > 100 µM
TGI [45]: > 100 µM
TGI [46]: > 100 µM

COc1ccc(/C(Cl)=C(\c2ccc(OCCN(C)C)cc2)c2ccc(OC(=O)C(C)(C)C)cc2)cc1
TGI [47]: 27.8 µM
TGI [1]: 27.2 µM
TGI [2]: 26.6 µM
TGI [48]: 29.5 µM
TGI [3]: 26.5 µM
TGI [4]: 25.7 µM
TGI [5]: 21.7 µM
TGI [6]: 26.4 µM
TGI [49]: 22.6 µM
TGI [7]: 12.4 µM
TGI [8]: 19.3 µM
TGI [9]: 23.1 µM
TGI [10]: 14.7 µM
TGI [11]: 27 µM
TGI [12]: 32.3 µM
TGI [13]: 24.4 µM
TGI [14]: 34 µM
TGI [15]: 17.5 µM
TGI [16]: 30 µM
TGI [50]: 23.7 µM
TGI [17]: 32.9 µM
TGI [18]: 29.4 µM
TGI [19]: 22.4 µM
TGI [20]: 28.6 µM
TGI [22]: 28.2 µM
TGI [23]: 27 µM
TGI [24]: 24.4 µM
TGI [51]: 26.8 µM
TGI [25]: 26.6 µM
TGI [26]: 26.6 µM
TGI [27]: 30.4 µM
TGI [28]: 29.1 µM
TGI [29]: 19.4 µM
TGI [30]: 29.1 µM
TGI [31]: 12.1 µM
TGI [32]: 29.2 µM
TGI [33]: 28.5 µM
TGI [34]: 21.8 µM
TGI [35]: 30.5 µM
TGI [52]: 21.9 µM
TGI [53]: 28.6 µM
TGI [36]: 28 µM
TGI [37]: 14.3 µM
TGI [54]: 26.9 µM
TGI [38]: 21.1 µM
TGI [39]: 11.5 µM
TGI [40]: 28.7 µM
TGI [41]: 30.9 µM
TGI [42]: 29.5 µM
TGI [55]: 33.2 µM
TGI [43]: 24.9 µM
TGI [44]: 28 µM
TGI [45]: 24.6 µM
TGI [46]: 26.8 µM
TGI [56]: 28.3 µM

COc1ccc(/C=c2/sc3n(c2=O)NC2(CCC(C)CC2)NN=3)cc1 (stereo not given)
TGI [47]: > 100 µM
TGI [1]: > 100 µM
TGI [2]: > 100 µM
TGI [48]: > 100 µM
TGI [3]: > 100 µM
TGI [4]: > 100 µM
TGI [5]: > 100 µM
TGI [6]: > 100 µM
TGI [49]: > 100 µM
TGI [7]: > 100 µM
TGI [8]: > 100 µM
TGI [9]: > 100 µM
TGI [10]: > 100 µM
TGI [11]: > 100 µM
TGI [12]: > 100 µM
TGI [13]: > 100 µM
TGI [14]: > 100 µM
TGI [15]: > 100 µM
TGI [16]: > 100 µM
TGI [50]: > 100 µM
TGI [17]: > 100 µM
TGI [18]: > 100 µM
TGI [20]: > 100 µM
TGI [22]: > 100 µM
TGI [23]: > 100 µM
TGI [24]: > 100 µM
TGI [51]: > 100 µM
TGI [25]: > 100 µM
TGI [26]: > 100 µM
TGI [27]: > 100 µM
TGI [28]: > 100 µM
TGI [29]: > 100 µM
TGI [30]: > 100 µM
TGI [31]: > 100 µM
TGI [32]: > 100 µM
TGI [33]: > 100 µM
TGI [34]: > 100 µM
TGI [35]: > 100 µM
TGI [52]: > 100 µM
TGI [53]: > 100 µM
TGI [36]: > 100 µM
TGI [37]: > 100 µM
TGI [54]: > 100 µM
TGI [39]: > 100 µM
TGI [40]: > 100 µM
TGI [42]: > 100 µM
TGI [55]: > 100 µM
TGI [43]: > 100 µM
TGI [44]: > 100 µM
TGI [45]: > 100 µM
TGI [46]: > 100 µM
TGI [56]: > 100 µM

C#CC1(O)c2ccccc2C(=O)c2ccccc21
TGI [47]: > 100 µM
TGI [1]: > 100 µM
TGI [48]: > 100 µM
TGI [3]: > 100 µM
TGI [4]: > 100 µM
TGI [5]: > 100 µM
TGI [6]: > 100 µM
TGI [49]: > 100 µM
TGI [7]: > 100 µM
TGI [9]: > 100 µM
TGI [10]: > 100 µM
TGI [11]: > 100 µM
TGI [12]: > 100 µM
TGI [14]: 99.6 µM
TGI [15]: > 100 µM
TGI [16]: > 100 µM
TGI [50]: > 100 µM
TGI [17]: > 100 µM
TGI [18]: > 100 µM
TGI [20]: > 100 µM
TGI [21]: > 100 µM
TGI [22]: > 100 µM
TGI [57]: > 100 µM
TGI [24]: > 100 µM
TGI [51]: > 100 µM
TGI [25]: > 100 µM
TGI [26]: > 100 µM
TGI [27]: > 100 µM
TGI [28]: > 100 µM
TGI [29]: > 100 µM
TGI [30]: > 100 µM
TGI [32]: > 100 µM
TGI [34]: > 100 µM
TGI [35]: > 100 µM
TGI [53]: > 100 µM
TGI [36]: > 100 µM
TGI [37]: > 100 µM
TGI [54]: > 100 µM
TGI [38]: > 100 µM
TGI [39]: > 100 µM
TGI [40]: > 100 µM
TGI [58]: > 100 µM
TGI [42]: > 100 µM
TGI [55]: > 100 µM
TGI [43]: > 100 µM
TGI [46]: > 100 µM
TGI [56]: > 100 µM
